Square brackets hold non-standard residues; d marks the D form. Peptide text beside a SMILES is read from it. * marks the point of attachment. Nle = CCCC[C@H](N)C(=O)O; Cbz = O=C(OCc1ccccc1)*
Key:
Notch-1 = experiment: Notch Western blot in MDA-MB231 cells; format: cell-based, human
Procedure: Notch silencing was confirmed by Western blot using commercial goat polyclonal antibodies from Santa Cruz Biotechnology to Notch-1 (C-20, Cat# sc-6014 S) and Notch-4 (C-19, Cat# sc-8644). Total cell lysates were prepared as follows: cells grown on 6 cm dishes were scraped in lysis buffer containing 1×PBS, 1% Nonidet P40, 0.5% deoxycholate, 0.1% SDS, freshly added aprotinin (45 μg/ml), phenylmethylsulfonyl fluoride (10 μg/ml), and sodium orthovanadate (10 μM). Lysates were sonicated 4 times for 5 seconds each, followed by 30 minutes incubation on ice. Lysates were centrifuged at 10,000 g for 20 minutes at 4° C. Supernatants were used as total cell lysates. Nuclear extracts were prepared as follows: 10,000,000 cells were pelleted, washed, and quickly frozen in a dry ice bath. Pellets were thawed by adding 100 μl of buffer 1 (10 mM HEPES, pH 7.9, 10 mM KCl, 1.5 mM MgCl2, 1 mM DTT). Nuclei were pelleted and lysed in 15 μl Buffer 2 (20 mM HEPES, pH7.9, 0.4 M NaCl, 1.5 mM MgCl2, 25% glycerol, 0.2 mM EDTA, 1 mM DTT, and 0.5 mM PMSF). Lysates were diluted in 50-70 μl Buffer 3 (20 mM HEPES, pH 7.9, 50 mM KCl, 20% glycerol, 0.2 mM EDTA, 1 mM DTT, 0.5 mM PMSF). Protein concentrations were estimated using the BCA protein assay (Pierce). Supernatants were boiled in reducing SDS sample buffer (Novex). Twenty μg protein per lane were run on a 3-8% Tris acetate gel (Invitrogen) in Tris Acetate Reducing Running Buffer (Novex). Protein bands were transferred onto PVDF membranes (BioRad) using transfer buffer (Novex). Membranes were then blocked overnight at 4° C. in 2% blocking solution in TBS (Roche). Primary antibodies were diluted in 2% Boehringer blocking solution (total volume 5 ml). Membranes were incubated for one hour at room temperature with shaking, then washed 6 times for 10 minutes each in TBS wash buffer. Membranes were incubated in secondary antibody in 2% of blocking solution for 30 minutes, then washed 6 times for 10 minutes each at RT in wash buffer. Bands were detected with chemiluminescent reagent (Roche) according to the manufacturer's directions. […]

NOXA = experiment: Western blot of NOXA after proteasome inhibitors in melanoma cells; format: cell-based, human; details: RJ002L, C8161, MUM2B, 18 hrs
Text: A panel of melanoma cells were used to assess the effect of bortezomib on pro-apoptotic proteins. RJ002L, C8161, MUM2B and SK-MeI-28 melanoma cells, as well as two normal melanocyte cultures (MC-010 and MC-012) were examined. Prior to testing, the RJ002L melanoma cell lines were maintained in RPMI supplemented with 10% FBS. Late passage melanoma cell lines (C8161, MUM2B and SK-Me1028) were utilized as previously described (Welch D et al., 1991, Int J Cancer 47:227-237; Bittner M et al., 2000, Nature 406:536-540). Normal human melanocytes were isolated from neonatal foreskins and cultured as previously described (Qin J et al., 2004, Mol Cancer Ther 3:895-902). Proliferating cells were examined by Western blot analysis before and after 18 hrs of exposure to bortezomib (1 μM). Antibodies were obtained as follows: Bad (SC-8044), Bcl-2 (SC-7382), Bcl-xL (SC-634), Mcl-1 (SC-819), Bak (SC-832) from Santa Cruz Biotechnology (Santa Cruz, Calif.); NOXA (OP180) from Calbiochem; Bid, Bim and PUMA from Cell Signaling (Beverly, Mass.); BAX from Upstate (Charlottesville, Va.); and β-actin from ICN (Irvine, Calif.). For the Western blot analysis, whole cell extracts were prepared as previously described (Denning M et al., 1998, J Biol Chem 273:29995-30002). Briefly, cells were harvested by scraping monolayers and washed with PBS. Cell pellets were resuspended in CHAPS buffers containing a protease inhibitor cocktail. Extracts were vigorously shaken at 4° C. for 15 min followed by centrifugation. Supernatants were collected and protein concentration determined using Bio-Rad reagent. Thirty to 50 microgram protein samples were resolved by SDS-polyacrylamide gel electrophoresis and transferred to polyvinylidene difluoride membrane by electroblotting. Membranes were probed with the various primary antibodies overnight at 4° C., followed by detection using ECL reagents (Amersham Pharmacia Biotech, Piscataway, N.J.) according to manufacturer's instructions.
Two other proteasome inhibitors, lactasytsin and MG-132, were tested for the ability to induce NOXA in melanoma cells and melanocytes. […]

“5′-AAGTGTCTGAGGCCAGCAAGA-3′ [Notch-1 siRNA]” was tested, and the “expression of Notch-1 and Notch-4” value (Notch-1; MDA-MB231 / HMEC, data not shown) was “strongly inhibited the expression of both Notch-1 and -4”.

With `CC(C)C[C@@H](C=O)NC(=O)[C@H](CC(C)C)NC(=O)[C@H](CC(C)C)NC(=O)OCc1ccccc1` [MG-132, benzoxycarbonyl-Leucyl-Leucyl-Leucyl-aldehyde] (Cbz-Leu-Leu-Leu-aldehyde) the NOXA induction (NOXA; 1 μM or 10 μM) was “induced high NOXA levels”.

For `CC(C)C[C@H](NC(=O)[C@H](Cc1ccccc1)NC(=O)c1cnccn1)B(O)O` [bortezomib, N-(2-pyrazine)carbonyl-L-phenylalanine-L-leucine boronic acid], the “induction of BH3-only proteins” value (NOXA; SK-MeI-28, 1 μM) was “only NOXA was consistently induced in all four melanoma cells”.

In the case of `CCCC[C@@H](C=O)NC(=O)[C@H](CC(C)C)NC(=O)[C@H](CC(C)C)NC(=O)OCc1ccccc1` [z-Leu-Leu-Nle-CHO, N-benzyloxycarbonyl-leucyl-leucyl-norleucinal] (Cbz-Leu-Leu-[Nle]-aldehyde), the “N^IC and N^TM levels” value (Notch-1; MDA-MB231, 0.5, 1 or 2 μM, 24 h, virtually complete at 2 μM) is reported as “dose-dependent decrease in N^IC and relative accumulation of N^TM”.

— patent publication US20080220416A1, “Compositions for Inhibiting Cell Growth and Inducing Apoptosis in Cancer Cells and Methods of Use Thereof” (THE BOARD OF TRUSTEES OF THE UNIVERSITY OF ILLINOI, priority 2004, published 2008)
